This is an account of results in US11168131B2, “Antibody molecule-drug conjugates and uses thereof” (priority 2015, dated 2021).

Where only a bound is given, the exact number is not on record here.

In assay [1] the test system is P. aeruginosa. Briefly: Minimal inhibitory concentration (MIC) assay, broth microdilution. It is filed as cell-based, Pseudomonas aeruginosa. To be noted: for MIC (mg/ml) Pae 27853 / MIC (mg/ml) Pae 39324: in the presence of PBS. (In general: In broth dilution the organism is exposed to a series of concentrations in liquid medium.)
The test system of assay [2] is S. aureus. Described as above. It is filed as cell-based, Staphylococcus aureus. The following applies: in the presence of PBS.
Assay [3] deals with P. aeruginosa. Briefly: MIC in the presence of 50% human serum (hsMIC). Type of assay: cell-based, Pseudomonas aeruginosa. To be noted: for hsMIC/MIC: Pae 27853, ratio of hsMIC to MIC; for 50% hsMIC (μg/ml) Pae 27853: in the presence of 50% human serum. The protocol: In an embodiment, the MIC is determined in the presence of phosphate-buffered saline (PBS). In an embodiment, the MIC or hsMIC is determined on per ADC basis. In an embodiment, the MIC or hsMIC is determined on per payload or antimicrobial peptide basis.

Assay [4] has as its system multiple drug resistant (MDR) strains of P. aeruginosa. Kind of assay: Microbial killing assay against multiple drug resistant strains. It is filed as cell-based, Pseudomonas aeruginosa. To be noted: assay as in Example 15; for 50% Killing Activity BAA-2108: MDR P. aeruginosa strain BAA-2108; for 50% Killing Activity BAA-2110: MDR P. aeruginosa strain BAA-2110; for 50% Killing Activity BAA-2114: MDR P. aeruginosa strain BAA-2114; for 50% Killing Activity Pae 27853: P. aeruginosa strain 27853. Here is the method:
The microbial killing assay was performed as follows. Bacterial cells were grown aerobically overnight on agar plates at 37° C. Overnight plates were used to seed 30 ml cultures of growth media in 250 ml vented flasks. Cultures were grown aerobically at 37° C., shaking at 150 rpm. Growth was monitored at A600 […] and bacterial cells were harvested at mid-log growth. Ten ml of culture was pelleted at 4000×G for 10 minutes and washed one time with PBS plus 1% BSA before re-suspending in 2 ml PBS+BSA. […] Cultures were diluted to 1×10^4 cells/ml in PBS plus BSA. Test articles were diluted in PBS+1% BSA and 50 μl per concentration tested was loaded into a 96 well polypropylene microtiter plate. Fifty μl of diluted culture was added to all test wells as well as no compound control wells. Plates were shaken and incubated at 37° C., 90 minutes, static. Ten μl from each assay well was plated onto agar plates and incubated at 37° C. overnight. Percent killing was determined by the CFU for test wells compared to the CFU for no compound control wells.

Assay [5] has as its system E. coli. Kind of assay: Minimal inhibitory concentration (MIC) assay, broth microdilution. It is filed as cell-based, Escherichia coli. The following applies: for MIC (mg/ml) Eco 43745: in the presence of PBS.
The subject of assay [6] is K. pneumoniae. Described as above. It is filed as cell-based, Klebsiella pneumoniae. To be noted: in the presence of PBS.

In the case of “GIGKFLKKAKKFGKAFVKILKKGGGGSGGGGS [peptide 24]”, in assay [1], the “MIC μg/ml Pae 27853” value turned out to be 8 µg/mL.

For the substance Ceftazadime [reference compound], in assay [2], the “MIC (mg/ml) Sau 29213” value turned out to be 0.004 mg/mL. Also, in assay [1], the “MIC (mg/ml) Pae 27853” value amounted to 1 mg/mL and the “MIC (mg/ml) Pae 39324” value worked out at 1 mg/mL. In addition, in assay [3], the hsMIC/MIC is reported as 1 and the “50% hsMIC (μg/ml) Pae 27853” value was 1 µg/mL.

In the case of “GGGGRFKRFRKKFKKLFKKLSPVIPLLHLG [Peptide P295]”, in assay [1], the “MIC (mg/ml) Pae 27853” value turned out to be 4 mg/mL and the “MIC (mg/ml) Pae 39324” value amounted to 4 mg/mL. For the same substance, in assay [3], the hsMIC/MIC was found to be 0.5 and the “50% hsMIC (μg/ml) Pae 27853” value came to 2 µg/mL. In assay [4], the “50% Killing Activity BAA-2108” value turned out to be 0.6 µg/mL, the “50% Killing Activity BAA-2110” value worked out at 0.6 µg/mL, the “50% Killing Activity BAA-2114” value came out at 0.14 µg/mL and the “50% Killing Activity Pae 27853” value is 0.3 µg/mL.

Consider “GGGLLGDFFRKSKEKIGKEFKRIVQRIKDFLRNLVPRTES [Peptide P265]”, for which, in assay [3], the hsMIC/MIC was >4 and the “50% hsMIC (μg/ml) Pae 27853” value was >128 µg/mL. In addition, the “MIC (mg/ml) Eco 43745” value in assay [5] worked out at 0.008 mg/mL. Further, in assay [6], the “MIC (mg/ml) Kpn 700603” value is >0.128 mg/mL.

With “GLRKRLRKFRNKIKEKLKKIGQKIQGLLPKLA [Peptide 33]”, the “MIC μg/ml Pae 27853” value in assay [1] turned out to be 8 µg/mL. For the same substance, the “MIC μg/ml Eco 25922” value in assay [5] stood at 8 µg/mL.

Take “GGGKRFKKFFKKLKNSVKKRAKKFFKKPRVIGVSIPF [Peptide P296]”: in assay [1], the “MIC (mg/ml) Pae 27853” value came out at 4 mg/mL and the “MIC (mg/ml) Pae 39324” value is 2 mg/mL. In assay [3], the hsMIC/MIC was found to be 0.25 and the “50% hsMIC (μg/ml) Pae 27853” value was found to be 1 µg/mL. In addition, the “MIC (mg/ml) Eco 43745” value in assay [5] was determined as 0.004 mg/mL.

In the case of “GGGGLRRLGRKIAHGIKKYGPTILRIIRIAG [Peptide P293]”, in assay [1], the “MIC (mg/ml) Pae 27853” value is 8 mg/mL and the “MIC (mg/ml) Pae 39324” value was 2 mg/mL. In addition, in assay [5], the “MIC (mg/ml) Eco 43745” value is 0.004 mg/mL. Moreover, the “MIC (mg/ml) Kpn 700603” value in assay [6] stood at 0.004 mg/mL.

GIGKFLKKAKKFGKAFVKILKK [peptide 109]: in assay [1], the “MIC μg/ml Pae 27853” value was 8 µg/mL. In addition, the “MIC μg/ml Eco 25922” value in assay [5] was 4 µg/mL.

“GGG-D-Dab-cyclic(L-Dab-L-Dab-D-Leu-L-Phe-L-Dab-L-Dab-L-Leu) [GGG-Octapeptin]”: the “MIC (mg/ml) Sau 29213” value in assay [2] is >0.128 mg/mL. In addition, in assay [1], the “MIC (mg/ml) Pae 27853” value was determined as 2 mg/mL and the “MIC (mg/ml) Pae 39324” value stood at 2 mg/mL. For the same substance, in assay [3], the hsMIC/MIC was found to be 1 and the “50% hsMIC (μg/ml) Pae 27853” value was 2 µg/mL. The “MIC (mg/ml) Kpn 700603” value in assay [6] is >0.128 mg/mL.

Take “GGGGSGGGGSGIGKFLKKAKKFGKAFVKILKK [peptide 23]”: the “MIC μg/ml Eco 25922” value in assay [5] came to 8 µg/mL.

Turning to “(MAL)-(EG3)-GIGKFLKKAKKFGKAFVKILKK [peptide 21]”, the “MIC μg/ml Eco 25922” value in assay [5] turned out to be 8 µg/mL.

As for “RLGNFFRKAKKKIGRGLKKIGQKIKDFLGNLVPRTES [peptide 128]”, in assay [1], the “MIC μg/ml Pae 27853” value is 8 µg/mL.

In the case of “GGGKFFRKLKKSVKKRAKEFFKKPRVIGVSIPF [Peptide P297]”, in assay [1], the “MIC (mg/ml) Pae 27853” value was 4 mg/mL and the “MIC (mg/ml) Pae 39324” value is 2 mg/mL. Further, in assay [3], the hsMIC/MIC is on record as 2 and the “50% hsMIC (μg/ml) Pae 27853” value is 8 µg/mL. Also, the “MIC (mg/ml) Eco 43745” value in assay [5] stood at 0.002 mg/mL. Besides, in assay [4], the “50% Killing Activity BAA-2108” value amounted to 0.28 µg/mL, the “50% Killing Activity BAA-2110” value is 0.28 µg/mL, the “50% Killing Activity BAA-2114” value came to 0.07 µg/mL and the “50% Killing Activity Pae 27853” value is 0.04 µg/mL.

Turning to “GGGRGLRRLGRKIAHGVKKYGPTVLRIIKKYG [Peptide P294]”, the “MIC (mg/ml) Eco 43745” value in assay [5] amounted to 0.002 mg/mL. The “MIC (mg/ml) Kpn 700603” value in assay [6] is 0.008 mg/mL.

For “GGGGLRKRLRKFRNKIKEKLKKIGQKIQGLLPKLA [Peptide P271]”, in assay [5], the “MIC (mg/ml) Eco 43745” value stood at 0.004 mg/mL.

As to “GGGGIGKFLKKAKKFGKAFVKILKK [Peptide P261]”, in assay [5], the “MIC (mg/ml) Eco 43745” value was found to be 0.004 mg/mL.

In the case of “GAFGNFLKGVAKKAGLKILSIAQCKLFGTC [peptide 70]”, the “MIC μg/ml Pae 27853” value in assay [1] amounted to 8 µg/mL. Also, the “MIC μg/ml Eco 25922” value in assay [5] was found to be 4 µg/mL.
